Entries after “also recorded” stand apart in the source; their conditions may differ. Read-outs that look alike come from different tables or passages of the source.
Experiments:
[1] = ADM&E studies: stability and protein binding; type: in vitro ADME
[2] = system: rats; test: Respiratory testing in rats; type: in vivo, rat; conditions: up to 90 mg/kg
[3] = target: recombinant human serotonin transporter protein (SERT) (Homo sapiens, UniProt P31645); test: IC50 binding profile, competitive inhibition assay, SERT
recombinant human serotonin transporter protein (SERT), sequence (P31645 whole entry): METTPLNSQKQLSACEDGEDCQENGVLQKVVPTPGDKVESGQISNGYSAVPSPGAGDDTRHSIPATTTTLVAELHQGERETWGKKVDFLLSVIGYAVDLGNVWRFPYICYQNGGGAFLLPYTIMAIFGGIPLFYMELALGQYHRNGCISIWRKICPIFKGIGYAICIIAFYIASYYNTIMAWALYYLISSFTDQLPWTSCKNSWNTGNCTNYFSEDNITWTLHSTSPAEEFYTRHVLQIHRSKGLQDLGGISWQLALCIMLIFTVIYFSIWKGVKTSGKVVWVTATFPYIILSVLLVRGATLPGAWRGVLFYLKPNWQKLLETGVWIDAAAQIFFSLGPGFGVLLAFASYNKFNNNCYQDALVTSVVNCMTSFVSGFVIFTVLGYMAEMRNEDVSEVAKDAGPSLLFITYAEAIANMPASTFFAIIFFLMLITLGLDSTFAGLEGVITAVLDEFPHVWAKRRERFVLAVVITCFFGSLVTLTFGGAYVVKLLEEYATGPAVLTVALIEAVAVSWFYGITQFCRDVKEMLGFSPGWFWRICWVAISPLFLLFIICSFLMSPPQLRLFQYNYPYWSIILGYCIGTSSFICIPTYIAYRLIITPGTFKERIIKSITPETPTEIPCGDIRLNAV
Description: (§1) Amitifadine and DOV 102,677 are enantiomers and differ only in the stereochemistry of the cyclopropyl pyrrolidine carbon to which the dichlorophenyl group is bonded. In addition to the structural differences, the compounds differ greatly in their IC50 binding profiles at the three corresponding monoamine transporter proteins. The IC50 binding profiles were measured for each of the compounds in Table 5 by competitive inhibition assays using recombinant human serotonin transporter protein, recombinant human norepinephrine transporter protein, and recombinant human dopamine transporter protein Compounds were screened at a range of concentrations and were fit to a curve to determine IC50 values, the concentration at which 50% inhibition occurs.

[4] = target: 5-HT2B (Homo sapiens, UniProt P41595); test: Receptor binding studies, 5-HT2B; conditions: at 10 uM
5-HT2B, sequence (P41595 whole entry, species assumed): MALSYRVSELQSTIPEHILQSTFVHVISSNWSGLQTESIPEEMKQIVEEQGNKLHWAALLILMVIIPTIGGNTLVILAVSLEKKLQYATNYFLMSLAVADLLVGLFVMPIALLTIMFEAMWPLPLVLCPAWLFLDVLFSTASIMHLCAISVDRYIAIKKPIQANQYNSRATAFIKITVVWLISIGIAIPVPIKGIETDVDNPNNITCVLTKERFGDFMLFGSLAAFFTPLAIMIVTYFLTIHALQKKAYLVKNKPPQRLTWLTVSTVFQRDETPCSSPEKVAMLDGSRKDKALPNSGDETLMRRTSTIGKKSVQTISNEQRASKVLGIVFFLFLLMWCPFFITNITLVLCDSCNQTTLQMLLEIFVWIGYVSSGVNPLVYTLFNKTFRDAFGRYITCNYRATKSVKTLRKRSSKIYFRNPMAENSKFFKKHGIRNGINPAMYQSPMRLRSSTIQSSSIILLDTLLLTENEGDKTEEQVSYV
Text: Binding at σ1 is not problematic, as SSRIs are known to have similar activities.

[5] = PK, distribution and excretion in rat; type: in vivo; conditions: for half-life: in vivo
[6] = system: CYP 3A4; test: CYP induction, 3A4; type: in vitro ADME
[7] = Teratogenicity study (segment II) in rats; conditions: rat, in vivo
[8] = system: healthy volunteers; test: Multiple ascending dose study in healthy volunteers; type: in vivo, human; conditions: multiple dose
Description: (§2) This double-blind, placebo controlled study enrolled 50 participants divided into 10 per dosing group. In each group of 10, 7 received active medication and 3 received placebo to maintain the blind. The doses tested were 25 mg BID, 75 mg QD, 50 mg BID, 75 mg BID, and 100 mg BID.

[9] = as above; type: in vivo, human; conditions: human, plasma, daily doses up to 11 days, for most doses, read-out: elimination half-life during chronic treatment (converted)
Description: as §2

[10] = Chronic (13 week) toxicity testing in rats; conditions: rat, in vivo, read-out: no adverse effects level (NOAEL)
[11] = system: dogs; test: Telemetry studies in dogs (ECG, QT); conditions: doses up to 20 mg/kg
[12] = PK parameters in dog; conditions: in vivo
[13] = system: locomotor activity; test: Locomotor activity, screening test for stimulant-like effects; conditions: in vivo
[14] = Metabolic stability in hepatocytes; type: in vitro ADME, human
[15] = system: humans; test: Positive subjective effects in humans (abuse potential)
[16] = target: CYP450 2C9 (Homo sapiens, UniProt P11712); test: CYP450 inhibition, 2C9; type: in vitro ADME
CYP450 2C9, sequence (P11712 whole entry): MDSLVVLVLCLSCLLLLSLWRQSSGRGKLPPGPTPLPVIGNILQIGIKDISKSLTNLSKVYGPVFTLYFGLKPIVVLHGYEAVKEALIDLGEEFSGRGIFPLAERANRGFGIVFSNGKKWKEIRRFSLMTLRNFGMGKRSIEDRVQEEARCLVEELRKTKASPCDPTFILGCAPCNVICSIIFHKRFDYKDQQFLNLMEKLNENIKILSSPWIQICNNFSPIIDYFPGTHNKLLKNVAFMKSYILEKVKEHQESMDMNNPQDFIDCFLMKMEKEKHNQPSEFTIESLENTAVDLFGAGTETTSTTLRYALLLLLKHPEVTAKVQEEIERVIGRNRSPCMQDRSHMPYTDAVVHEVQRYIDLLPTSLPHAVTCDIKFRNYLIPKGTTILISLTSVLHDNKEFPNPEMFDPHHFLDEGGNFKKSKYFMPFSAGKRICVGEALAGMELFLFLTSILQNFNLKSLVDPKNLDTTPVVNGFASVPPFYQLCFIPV

[17] = system: CYP 2B6; test: CYP induction, 2B6; type: in vitro ADME
[18] = target: CYP450 2D6 (Homo sapiens, UniProt P10635); test: CYP450 inhibition, 2D6; type: in vitro ADME; conditions: at 10 uM
CYP450 2D6, sequence (P10635 whole entry): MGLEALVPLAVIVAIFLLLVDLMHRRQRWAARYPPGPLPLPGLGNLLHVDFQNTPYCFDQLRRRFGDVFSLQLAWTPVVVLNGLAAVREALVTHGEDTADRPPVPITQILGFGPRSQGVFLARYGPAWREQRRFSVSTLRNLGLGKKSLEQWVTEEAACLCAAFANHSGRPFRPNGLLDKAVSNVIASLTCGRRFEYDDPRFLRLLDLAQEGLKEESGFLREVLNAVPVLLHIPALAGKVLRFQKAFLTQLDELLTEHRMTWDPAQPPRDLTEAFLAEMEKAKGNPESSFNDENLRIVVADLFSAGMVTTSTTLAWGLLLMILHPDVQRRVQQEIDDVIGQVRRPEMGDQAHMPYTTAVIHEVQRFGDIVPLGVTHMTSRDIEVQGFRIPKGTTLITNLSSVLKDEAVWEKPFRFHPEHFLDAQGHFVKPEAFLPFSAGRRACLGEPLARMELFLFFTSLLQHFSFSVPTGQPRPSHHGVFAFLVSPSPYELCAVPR

[19] = target: CYP450 2C19 (Homo sapiens, UniProt P33261); test: CYP450 inhibition, 2C19; type: in vitro ADME
CYP450 2C19, sequence (P33261 whole entry): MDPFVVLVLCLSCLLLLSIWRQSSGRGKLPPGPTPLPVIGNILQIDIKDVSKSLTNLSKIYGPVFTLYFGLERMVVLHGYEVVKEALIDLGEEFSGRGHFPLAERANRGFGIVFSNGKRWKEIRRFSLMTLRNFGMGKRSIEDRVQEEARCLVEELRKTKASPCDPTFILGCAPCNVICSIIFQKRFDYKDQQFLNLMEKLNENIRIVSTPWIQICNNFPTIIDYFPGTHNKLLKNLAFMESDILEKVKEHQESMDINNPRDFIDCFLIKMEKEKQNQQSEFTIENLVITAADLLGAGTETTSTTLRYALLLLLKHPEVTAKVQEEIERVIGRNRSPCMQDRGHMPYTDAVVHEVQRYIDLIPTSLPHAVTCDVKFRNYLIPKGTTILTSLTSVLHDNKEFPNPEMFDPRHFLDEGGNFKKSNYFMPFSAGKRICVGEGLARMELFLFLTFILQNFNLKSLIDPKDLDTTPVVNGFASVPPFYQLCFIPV

[20] = target: hERG channel (Homo sapiens, UniProt Q12809); test: hERG channel inhibition; conditions: accompanied by offsetting inhibition of other ion channels
hERG channel, sequence (Q12809 whole entry): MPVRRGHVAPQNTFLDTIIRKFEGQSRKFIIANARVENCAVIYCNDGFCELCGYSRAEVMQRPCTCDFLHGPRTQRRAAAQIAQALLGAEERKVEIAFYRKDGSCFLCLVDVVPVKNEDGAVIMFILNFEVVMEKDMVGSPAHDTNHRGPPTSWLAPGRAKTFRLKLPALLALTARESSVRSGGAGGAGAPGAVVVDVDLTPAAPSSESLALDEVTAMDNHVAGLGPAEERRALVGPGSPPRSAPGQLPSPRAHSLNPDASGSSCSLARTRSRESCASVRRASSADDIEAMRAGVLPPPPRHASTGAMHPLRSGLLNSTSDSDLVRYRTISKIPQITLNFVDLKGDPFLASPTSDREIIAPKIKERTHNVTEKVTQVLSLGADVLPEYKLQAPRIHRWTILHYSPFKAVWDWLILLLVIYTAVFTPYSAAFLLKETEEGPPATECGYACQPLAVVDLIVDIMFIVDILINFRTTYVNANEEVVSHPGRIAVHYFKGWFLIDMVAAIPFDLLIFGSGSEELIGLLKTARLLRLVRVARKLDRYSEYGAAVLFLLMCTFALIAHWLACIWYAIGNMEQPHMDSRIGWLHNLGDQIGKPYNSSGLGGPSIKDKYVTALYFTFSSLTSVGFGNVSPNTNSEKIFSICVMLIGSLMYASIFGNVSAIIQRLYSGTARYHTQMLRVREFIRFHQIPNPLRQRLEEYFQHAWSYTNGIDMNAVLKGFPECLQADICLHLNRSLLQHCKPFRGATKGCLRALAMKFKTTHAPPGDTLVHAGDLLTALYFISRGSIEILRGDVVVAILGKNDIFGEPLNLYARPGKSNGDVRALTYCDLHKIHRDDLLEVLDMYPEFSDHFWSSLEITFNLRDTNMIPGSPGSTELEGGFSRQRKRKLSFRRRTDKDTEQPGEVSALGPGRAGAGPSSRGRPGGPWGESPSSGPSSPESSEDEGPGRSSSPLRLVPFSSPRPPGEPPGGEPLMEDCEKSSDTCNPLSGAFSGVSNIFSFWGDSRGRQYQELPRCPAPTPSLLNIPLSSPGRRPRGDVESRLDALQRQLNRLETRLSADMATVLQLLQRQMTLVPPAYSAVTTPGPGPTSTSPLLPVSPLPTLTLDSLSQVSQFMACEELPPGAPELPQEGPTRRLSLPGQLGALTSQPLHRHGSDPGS

[21] = target: recombinant human norepinephrine transporter protein (NET) (Homo sapiens, UniProt P23975); test: IC50 binding profile, competitive inhibition assay, NET
recombinant human norepinephrine transporter protein (NET), sequence (P23975 whole entry): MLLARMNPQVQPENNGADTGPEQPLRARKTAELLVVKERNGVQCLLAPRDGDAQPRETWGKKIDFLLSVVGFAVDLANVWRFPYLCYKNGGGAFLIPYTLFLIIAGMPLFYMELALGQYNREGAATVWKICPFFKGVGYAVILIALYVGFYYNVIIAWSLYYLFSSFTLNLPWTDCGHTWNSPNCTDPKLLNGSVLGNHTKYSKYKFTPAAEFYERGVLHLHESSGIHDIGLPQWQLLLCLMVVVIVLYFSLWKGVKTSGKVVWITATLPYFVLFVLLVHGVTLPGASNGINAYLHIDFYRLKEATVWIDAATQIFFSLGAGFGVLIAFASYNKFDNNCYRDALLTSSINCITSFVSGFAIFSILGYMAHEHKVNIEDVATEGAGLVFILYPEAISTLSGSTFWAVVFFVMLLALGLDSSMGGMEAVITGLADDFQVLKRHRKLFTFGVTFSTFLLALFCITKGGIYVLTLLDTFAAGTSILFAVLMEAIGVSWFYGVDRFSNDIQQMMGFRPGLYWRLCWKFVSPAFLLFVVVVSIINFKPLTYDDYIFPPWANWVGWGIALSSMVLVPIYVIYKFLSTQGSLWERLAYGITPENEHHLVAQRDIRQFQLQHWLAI
Description: as §1

[22] = PK parameters in monkey; conditions: in vivo
[23] = system: alcohol preferring P rats; test: Binge alcohol / sucrose operant drinking in alcohol preferring P rats; type: in vivo, rat
Description: Animals were habituated to the gavage procedures by administering deionized water alone over a number of experimental sessions.
Animals were tested in 30 individual standard operant chambers (Coulbourn Instruments, Inc., Lehigh Valley, Pa.). The operant apparatus contained two levers, two dipper manipulanda, a cue light over each lever, and a house light. The dipper cup delivered either 10% (v/v) alcohol or 1% (w/v) sucrose reinforcers in a volume of 0.1 ml. To initiate excessive “binge” alcohol drinking, rats were adapted to a 12 h:12 h light/dark cycle which began at 4:30 pm (lights off) and lasted to 4:30 am (lights on). Rats were trained to orally self-administer EtOH for daily 30 min sessions under an FR1 schedule employing the sucrose fading technique. After a period of stabilization, the response requirement was then increased to an FR4 schedule. Responding was considered stable when responses were within ±20% of the average responses for five consecutive days, which took approximately 8 days. During the stabilization procedures, the animals were never deprived of food or fluid. Other cohorts of rats were given a 1% (w/v) concentration of sucrose and trained in an identical manner under the FR1, then FR4, schedule. […] Self-administration was assessed in 3×30 min FR4 operant sessions spaced 1 h apart during the dark cycle. […]

## c1ccc2cc([C@H]([C@H]3CCCNC3)n3ncnn3)ccc2c1 [Example Compound 2, (3S)-3-[(S)-naphthalen-2-yl(2H-tetrazol-2-yl)methyl]piperidine]
[1]
  protein binding: modest
  stability: stable
[2]
  respiratory testing: negative
[3]
  IC50: 20 nM
[4]
  inhibition of binding at 5-HT2B: 56 % inhibition
[5]; brain, rat, after oral dosing, read-out: AUC ratio (brain/plasma)
  Kp: 0.45
[5]; rat, after oral administration
  accumulation in tissue: does not accumulate; also recorded: without significant accumulation
  tissue distribution: widely distributed across most tissues
[5]; rat, T1/2
  half-life: 3.7 h
[5]; rat, po, elimination half-life in brain
  half-life: 12.6 h
[5]; rat, po, elimination half-life in plasma
  half-life: 5 h
[5]; rodents
  route of excretion: mainly excreted in feces
[6]
  induction of CYP 3A4: does not induce
[7]; read-out: NOAEL fetal development
  NOAEL: 90 mg/kg/day
[7]; read-out: NOAEL fetal growth
  NOAEL: 30 mg/kg/day
[7]; read-out: NOAEL fetal viability
  NOAEL: 90 mg/kg/day
[7]; read-out: NOAEL maternal toxicity
  NOAEL: 30 mg/kg/day
[8]
  effects on vital signs or on QTc: no effects
  primary adverse events: nausea, vomiting and headache
[8]; across all doses
  plasma concentration versus dose: proportional to dose
[9]
  half-life: ~6 h
[10]
  NOAEL at 13 week: 60 mg/kg
[11]
  effects on ECG or QT: no effects
[12]
  half-life: 2 h
[12]; po, dogs
  bioavailability: 45%
[13]
  increases in locomotor activity: does not cause increases
[14]
  metabolic stability: high
[15]
  positive subjective effects in humans: does not produce positive subjective effects
[16]
  inhibition of CYP450 2C9: does not inhibit
[17]
  induction of CYP 2B6: does not induce
[18]
  inhibition of CYP450 2D6: does inhibit
[19]
  inhibition of CYP450 2C19: does not inhibit
[20]
  hERG channel inhibition: moderate
[21]
  IC50: 10 nM
[22]
  half-life: 5.8 h
[22]; po, monkeys
  bioavailability: 10%
[23]; oral 15, 30, 40, 60, or 80 mg/kg, p<0.001
  binge operant responding for alcohol: significantly reduced
[23]; oral, p>0.05, except for the 80 mg/kg dose
  binge sucrose responding: failed to significantly reduce

Reference: patent publication US9637470B2, “Treatment for substance use disorders and stress disorders” (Baylor College of Medicine, priority 2013, dated 2017)
